# Read-outs that look alike come from different tables or passages of the source.
# Key:
# [1] = test system: MRSA ATCC 43300; experiment: Neutropenic mouse thigh infection model; format: in vivo, Staphylococcus aureus; conditions: 20 mg/kg i.v., neutropenic mice; for Reduction of mean MRSA counts in thighs vs untreated group: 24 h; for Average amount of MRSA inoculum in thighs: 24 h after treatment
# Protocol: (§1) The mouse thigh infection model was performed as described in the literature with minor modifications. Briefly, female mice had induced neutropenia (neutrophil count ≤ 100/mm^3) by administered intraperitoneally cyclophosphamide on day 4 (150 mg/kg) and day 1 (100 mg/kg) before the experiment. A bacterial suspension of 0.1 mL (MRSA or S. aureus) containing approximately 10^7 CFU/mL microorganism was injected into the posterior thigh of mice to establish infection. Two hours after infection, mice were intravenously injected with NPDM or tiamulin at 20 mg/kg. After 24 h, thighs (six per group) were collected upon euthanasia. Then, thighs were weighed and homogenized with sterile saline. Tissue homogenate was continuously diluted 10-fold and plated on MHA plates for colony counts. SPSS 19 software was used for statistical analysis and t-tests.
# [2] = test system: S. aureus ATCC 29213; experiment: Neutropenic mouse thigh infection model; format: in vivo, Staphylococcus aureus; conditions: 20 mg/kg i.v., neutropenic mice; for Average amount of S. aureus inoculum in thighs: 24 h after treatment; for Reduction of mean bacterial counts in thighs vs untreated group: S. aureus, 24 h
# Protocol: as §1
# [3] = test system: MRSA ATCC 43300; experiment: Time-kill assay; format: cell-based, Staphylococcus aureus; conditions: for Concentration showing bactericidal activity (≥3 log10 CFU/mL decrease): after incubation for 24 h
# Protocol: (§2) The MRSA and S. aureus in the logarithmic phase were diluted to 10^6 CFU/mL with MHB. Then diverse concentrations of NPDM or tiamulin were added to the bacteria solution reaching the final concentration of 1 × MIC, 2 × MIC, 4 × MIC, and 8 × MIC, respectively. All bacterial inoculums were cultured at 37 °C with shaking. A total of 100 μL samples were taken from the subcultures at 0, 3, 6, 9, and 24 h, respectively, and continuously diluted 10-fold in sterile saline; then, 25 μL diluent was plated on the MHA plate. All plates were placed at 37 °C for 24 h. The total number of colonies on the plate was counted, and the results were expressed as log (CFU/mL).
# [4] = test system: S. aureus ATCC 29213; experiment: Time-kill assay; format: cell-based, Staphylococcus aureus
# Protocol: as §2
# [5] = test system: S. aureus 144 (clinical strain); experiment: MBC assay; format: cell-based; conditions: Staphylococcus aureus
# Protocol: (§3) Determination of MBCs refers to the minimum concentrations of antibacterial agents required to kill 99.9% of the test microorganisms after 24 h of incubation. After obtaining the MICs value, the 96-well plates were placed at 37 °C and incubated for 24 h. One hundred microliter aliquots of the bacterial suspensions were taken from the wells without visible bacterial growth and then plated onto MHA plates. […] The MBC assay was conducted at least in triplicate.
# [6] = test system: S. aureus ATCC 29213; experiment: MBC assay; format: cell-based; conditions: Staphylococcus aureus, ATCC29213
# Protocol: as §3
# [7] = test system: S. aureus AD3 (clinical strain); experiment: MBC assay; format: cell-based; conditions: Staphylococcus aureus
# Protocol: as §3
# [8] = test system: MRSA ATCC 43300; experiment: Post-antibiotic effect (PAE) assay; format: cell-based, Staphylococcus aureus
# Protocol: The PAE was carried out as described in the literature. The MRSA was diluted to 10^6 CFU/mL in MHB. The NPDM or tiamulin was added into the bacteria solution at the final concentrations of 2 × MIC and 4 × MIC. Then all tubes were incubated at 37 °C for 1 h or 2 h. Each of the above inoculums was diluted 1000-fold with pre-warmed MHB to remove the test compounds and placed in a water bath at 37 °C immediately. One hundred microliters of suspension were taken from each culture, diluted 10-fold in sterile saline, and inoculated on MHA plates at 0, 1, 2, 4, and 6 h after inoculation. The total number comprising the colonies was counted after incubation at 37 °C for 20 h. The PAE was calculated referring to published methods. The experiment was performed in triplicate.
# [9] = test system: MRSA ATCC 43300; experiment: MBC assay; format: cell-based, Staphylococcus aureus; conditions: for MBC: Staphylococcus aureus, MRSA ATCC 43300
# Protocol: as §3
# [10] = test system: S. aureus 144 (clinical strain); experiment: MIC, broth dilution micro-method; format: cell-based; conditions: Staphylococcus aureus, 24 h, MHB
# Protocol: (§4) The MICs of NPDM against MRSA were determined by the broth dilution micro-method. Briefly, the stock solution of NPDM and the reference drug tiamulin were diluted by a two-fold serial dilution method with MHB in a 96-well plate to provide concentration ranges of 16~0.032 μg/mL. Then 100 μL of bacterial suspensions in log phase were diluted to 10^6 CFU/mL with MHB and were added to each well to make the final concentrations of the test compounds ranging from 8 to 0.016 μg/mL. The bacterial suspension (no drugs but solvent) was used as the positive control and MHB (no cultures) was used as the negative control. […] The MICs assay was carried out in triplicate.
# [11] = test system: MRSA ATCC 43300; experiment: MIC, broth dilution micro-method; format: cell-based; conditions: Staphylococcus aureus, 24 h, MHB
# Protocol: as §4
# [12] = test system: S. aureus ATCC 29213; experiment: MIC, broth dilution micro-method; format: cell-based; conditions: Staphylococcus aureus, ATCC29213, 24 h, MHB
# Protocol: as §4
# [13] = test system: S. aureus AD3 (clinical strain); experiment: MIC, broth dilution micro-method; format: cell-based; conditions: Staphylococcus aureus, 24 h, MHB
# Protocol: as §4
# [14] = test system: MRSA ATCC 43300; experiment: Galleria mellonella infection model; format: in vivo; conditions: Staphylococcus aureus, 120 h; Galleria mellonella larvae infected with MRSA, survival over 5 days
# Protocol: The survival rate of Galleria mellonella was determined according to the literature with some modifications. Larvae of Galleria mellonella (16 per group) were injected with 10 μL of 10^8 CFU/mL MRSA inoculum into the last right proleg. Two hours after infection, larvae were injected with 10 μL of various doses (17.14, 25.71, 37.14, 57.14, and 85.71 mg/kg) of NPDM or tiamulin (used as reference drug) into the last left proleg. The larvae were maintained at 37 °C. Survival of the larvae was recorded daily for 5 days, and the ED50 was calculated.
# [15] = test system: BRL-3A cells; experiment: Cytotoxicity, MTT assay; format: cell-based; conditions: Rattus norvegicus, read-out: 50% inhibition concentration (IC50), cell viability
# Protocol: The cytotoxicity of NPDM was evaluated by the MTT assay as previously reported. Briefly, the medium containing 1 × 10^5 BRL-3A cells per 1 mL was seeded into a 96-well plate at 100 μL per well. After incubation for 48 h, media were replaced with 100 μL of serial dilutions of test compounds and incubated for 16 h. The absorbance (A) was measured at 490 nm by an automatic microplate reader (BIO-TEK Instrument Inc., Winooski, VT, USA). The cell viability was calculated according to Equation (1):(1) Cell viability (%) = (Asimple−Anegative)/(Apositive−Anegative)×100%
# A graph was constructed by plotting the inhibition percentage versus various concentrations of NPDM and tiamulin, from which the IC50 of NPDM or tiamulin was calculated. The measurement was repeated in triplicate.
# [16] = Acute oral toxicity in mice; format: in vivo; conditions: for LD50 at 2 weeks: both sexes, mice, oral single dose; for LD50 at 2 weeks / Mortality / Mortality Rate: mouse, in vivo, po; for Mortality / Mortality Rate: both, 2 weeks
# Protocol: The acute oral toxicity of NPDM was evaluated according to the method reported in the literature. Mice were divided into 6 groups (10 animals each group, half male and half female) and were fasted for 12 h before the experiment. The NPDM was dissolved in DMSO and suspended in 0.5% sodium carboxymethyl cellulose solution. The volumes of suspension by oral gavages were 0.1 mL/10 g. The vehicle control group received DMSO without drug. All animals were observed twice daily for symptoms and mortality for two weeks. At the end of the study, all surviving animals were sacrificed.
# [17] = Pharmacokinetic study in mice, plasma LC-MS/MS; format: in vivo
# Protocol: Adult female mice fasted for 12 h before the experiment. The NPDM was administered intravenously at the dose of 10 mg/kg. Approximately 0.2 mL blood samples were collected from the ocular venous plexus at 0.083, 0.167, 0.25, 0.5, 0.75, 1, 2, 4, 6, 8, 12, and 24 h after administration. All samples were centrifuged at 3000 rpm for 10 min, then the plasma samples were separated and stored at −20 °C. After thawing at room temperature, samples were mixed with acetonitrile (HPLC grade, sample:acetonitrile = 1:4, v/v) and centrifuged at 12,000 rpm for 10 min. Then, the supernatant was purified by the 0.22 μm cellulose membrane filter and transferred into an autosampler vial for HPLC-MS/MS analysis. Information of the equipment and analysis conditions are available in the Supplemental Materials. The pharmacokinetic parameters of the NPDM were calculated using the non-compartmental model in WinNonlin 5.2 software (Pharsight, Mountain View, CA, USA).
# [18] = test system: MRSA ATCC 43300; experiment: Neutropenic mouse systemic infection model; format: in vivo, Staphylococcus aureus; conditions: 30 mg/kg i.v.
# Protocol: The survival rate of mice was determined by the systemic infection model according to the literature with some modifications. Neutropenic mice (10 per group, half male and half female) were injected with 0.5 mL MRSA inoculum of 10^6 CFU/mL (100% minimum lethal dose) intraperitoneally. One hour after infection, the mice were administered with NPDM or tiamulin intravenously at a dose of 30 mg/kg body weight. Tiamulin was used as a reference drug. The survival of the mice was recorded for 7 days.
# [19] = female, mouse, plasma, iv, 10 mg/kg i.v., non-compartmental
structure (smiles),measurement,setting,value
"C=C[C@]1(C)C[C@@H](OC(=O)CSCCN(CC)CC)[C@]2(C)[C@H](C)CC[C@]3(CCC(=O)[C@H]32)[C@@H](C)[C@@H]1O [Tiamulin, reference compound]",Reduction of mean MRSA counts in thighs vs untreated group,[1],~ 1.15 log CFU/mL
same,Average amount of MRSA inoculum in thighs,[1],(2.64 ± 1.95) × 10^8 CFU
same,Average amount of S. aureus inoculum in thighs,[2],(2.00 ± 1.21) × 10^8 CFU
same,Reduction of mean bacterial counts in thighs vs untreated group,[2],~ 0.68 log CFU/mL
same,Time-kill activity at 2 × MIC,[3],bacteriostatic activity with a rebound growth
same,Concentration showing bactericidal activity (≥3 log10 CFU/mL decrease),[3],≥ 4 × MIC
same,Concentration showing bacteriostatic effect,[4],≥ 2 × MIC
same,MBC,[5],2 µg/mL
same,MBC,[6],0.5 µg/mL
same,MBC,[7],2 µg/mL
same,PAE,"[8]; 2 × MIC, exposure for 1 h",1.53 h
same,PAE,"[8]; 2 × MIC, exposure for 2 h",1.65 h
same,PAE,"[8]; 4 × MIC, exposure for 1 h",1.90 h
same,PAE,"[8]; 4 × MIC, exposure for 2 h",2.04 h
same,MBC,[9],0.5 µg/mL
same,MIC,[10],0.5 µg/mL
same,MIC,[11],0.5 µg/mL
same,MIC,[12],0.5 µg/mL
same,MIC,[13],0.5 µg/mL
same,ED50,[14],75.7 mg/kg
same,IC50,"[15]; BRL-3A cells, MTT, 16 h incubation",13.1 µg/mL
"C=C[C@]1(C)C[C@@H](OC(=O)CN2CCN(C(=O)CN3CCN(c4ccc([N+](=O)[O-])cc4)CC3)CC2)[C@]2(C)[C@H](C)CC[C@]3(CCC(=O)[C@H]32)[C@@H](C)[C@@H]1O [NPDM, 22-(4-(2-(4-nitrophenyl-piperazin-1-yl)-acetyl)-piperazin-1-yl)-22-deoxypleuromutilin]",Reduction of mean MRSA counts in thighs vs untreated group,[1],~ 1.61 log CFU/mL
same,Average amount of MRSA inoculum in thighs,[1],(8.16 ± 3.70) × 10^7 CFU
same,Average amount of S. aureus inoculum in thighs,[2],(1.23 ± 0.51) × 10^8 CFU
same,Reduction of mean bacterial counts in thighs vs untreated group,[2],~ 0.95 log CFU/mL
same,Time-kill activity at 2 × MIC,[3],bactericidal activity
same,Concentration showing bactericidal activity (≥3 log10 CFU/mL decrease),[3],≥ 2 × MIC
same,Concentration showing bacteriostatic effect,[4],≥ 2 × MIC
same,Acute toxicity classification,[16]; LD50 in the range of 501~5000 mg/kg,low-toxic compound
same,LD50 at 2 weeks,"[16]; modified Karber's formula, read-out: LD50",3760 mg/kg
same,LD50 at 2 weeks,[16]; read-out: LD50 95% confidence interval,3010 to 4710 mg/kg
same,Mortality,[16]; 987.65 mg/kg,1
same,Mortality Rate,[16]; 987.65 mg/kg,10%
same,Mortality,[16]; 1481.48 mg/kg,1
same,Mortality Rate,[16]; 1481.48 mg/kg,10%
same,Mortality,[16]; 2222.22 mg/kg,2
same,Mortality Rate,[16]; 2222.22 mg/kg,20%
same,Mortality,[16]; 3333.33 mg/kg,3
same,Mortality Rate,[16]; 3333.33 mg/kg,30%
same,Mortality,[16]; 5000 mg/kg,5
same,Mortality Rate,[16]; 5000 mg/kg,50%
same,MBC,[5],0.5 µg/mL
same,MBC,[6],0.25 µg/mL
same,MBC,[7],0.5 µg/mL
same,PAE,"[8]; 2 × MIC, exposure for 1 h",2.58 h
same,PAE,"[8]; 2 × MIC, exposure for 2 h",3.62 h
same,PAE,"[8]; 4 × MIC, exposure for 1 h",3.11 h
same,PAE,"[8]; 4 × MIC, exposure for 2 h",4.03 h
same,PAE longer than that of tiamulin,[8]; difference vs tiamulin,1~2 h
same,MBC,[9],0.125 µg/mL
same,MBC/MIC value,[9]; against MRSA,one
same,MRT,"[17]; 10 mg/kg i.v., non-compartmental, 10 mg/kg",18.6 ± 3 min
same,clearance,"[17]; female, mouse, plasma, 10 mg/kg, single intravenous administration",46 mL/min/kg
same,AUC(0-inf),[17]; [19],3660 ± 370 ng·h/mL
same,AUC(0-t),[17]; [19],3650 ± 400 ng·h/mL
same,Cmax,[17]; [19],8690 ± 740 ng/mL
same,Tmax,[17]; [19],4.98 min
same,half-life,[17]; [19],13.2 ± 2.4 min
same,MRT,"[17]; female, mouse, plasma, iv, 10 mg/kg, 10 mg/kg i.v., non-compartmental, read-out: MRT",21.6 min
same,MIC,[10],0.125 µg/mL
same,MIC,[11],0.125 µg/mL
same,MIC,[12],0.125 µg/mL
same,MIC,[13],0.125 µg/mL
same,Survival rate at the endpoint,"[18]; lethal MRSA challenge, 7 days, neutropenic mice",70%
same,Survival rate higher than that of the tiamulin-treated group,[18]; difference vs tiamulin,20%
same,ED50,[14],50.5 mg/kg
same,IC50,[15]; 16 h,9.64 µg/mL

# Source: article PMC8227856, “Antibacterial Activity of a Promising Antibacterial Agent: 22-(4-(2-(4-Nitrophenyl-piperazin-1-yl)-acetyl)-piperazin-1-yl)-22-deoxypleuromutilin” (Molecules, 2021)
